The text below walks through data of patent publication US6607723B1, “Methods and compositions for attenuating antibody-mediated xenograft rejection in human recipients” (priority 1991, dated 2003).

Series [1] concerns Human Anti-Pig Kidney antibodies. As to the kind of experiment: ELISA: human antibodies eluted from pig kidney binding to carbohydrate-BSA antigens. The following applies: BSA well O.D. subtracted. Here is the method: (§1) Organs from two populations of pigs were used to purify human anti-pig antibodies. The pig strains were Poland China and Yorkshire. Antibody preparations were obtained by perfusing 100-200 ml of human plasma (O or AB) through pig hearts, pig kidneys or through a column containing solid support coated with pig red cell stroma. After washing the tissues thoroughly with 0.15 M NaCl, the retained antibodies were eluted from the tissue or column using 200 ml of 3M NaSCN. The antibodies were concentrated, and then the protein content determined. Carbohydrate antigens were made by covalent binding of the synthetic oligosaccharides with an aliphatic linking arm (CH2)8COOCH3 to BSA as described by Pinto and Bundle (1983)^19 and/or Lemieux, Bundle, Baker (U.S. Pat. No. 4,137,401)^13 (ten to twenty haptens per molecule of BSA). Example 5, infra, describes this procedure as applied to carbohydrate 2 of FIG. 1A. Structures and trivial names of some of the monosaccharides and oligosaccharides used are included in FIGS. 1A to 1H. The use of synthetic carbohydrate structures to detect antibody binding has been previously described in U.S. Pat. No. 4,137,401^13. The technology used for the ELISA assay for detecting anti-carbohydrate antibodies is a combination of the work from numerous groups. Wells in 96 microtitration plates (Flow Laboratories, Inc., McLean Va., U.S.A.) were coated by incubation at room temperature for 16 hours with 2 μg of BSA-glycoconjugates or BSA per well (20 μg BSA-conjugate/ml diluted in PBS). The coating solutions were removed and 200 μl/well of PBS containing 5% BSA was added. After a 4 hours incubation (22° C.), the wells were washed twice with PBS, then once with H2O. The plates were inverted, allowed to dry, and stored at room temperature. Immediately before testing, 200 μl of PBS containing 1% BSA (1% BSA/PBS) was added to each of the wells and left to stand for 10 to 20 minutes at ambient temperature. The human anti-pig preparations were diluted to between 15 to 70 μg of eluted protein per ml of 1% BSA/PBS. The BSA/PBS was removed and 100 μl of diluted anti-pig preparation was added to the appropriate wells, then incubated at 4° C. for 16 hours. The antibody preparations were removed and the wells were washed 4 times with PBS (200 μl/wash). Alkaline phosphatase-conjugated reagents (anti-human polyvalent (α, γ and μ chain specific), anti-human IgG (γ chain specific) and anti-human IgM (μ chain specific)) from Sigma Chemical Company (St. Louis, Mo., U.S.A.) were each diluted 1/500 in 1% BSA/PBS. One hundred μl of this mixture was added to each well. After 2 hours, wells were washed four times with PBS, then 100 μl/well of 1.0 mg of p-nitrophenyl phosphate/ml of 1 M diethanolamine-HCl (pH 9.8) containing 19% BSA and 500 μM MgCl2 was added. After 1 hour, optical densities at 405 nm (O.D.) were measured using a Microplate Autoreader (Model EL 309, BIO-TEK Instruments, Winooski, Vt., U.S.A.). The O.D. results for BSA-coated wells were subtracted from the results for the glycoconjugate-BSA-coated wells for each preparation. The assays were performed in duplicate.
For orientation: An ELISA detects its analyte on a solid surface through an enzyme-linked reagent.

For series [2], the system named is human antibodies eluted from pig heart, pig kidney and/or pig red cell stroma. Description: ELISA: human anti-pig antibody preparations overall binding to carbohydrate antigens. As to the method:
Organs from two populations of pigs were used to purify human anti-pig antibodies. The pig strains were Poland China and Yorkshire. Antibody preparations were obtained by perfusing 100-200 ml of human plasma (O or AB) through pig hearts, pig kidneys or through a column containing solid support coated with pig red cell stroma. After washing the tissues thoroughly with 0.15 M NaCl, the retained antibodies were eluted from the tissue or column using 200 ml of 3M NaSCN. The antibodies were concentrated, and then the protein content determined. Carbohydrate antigens were made by covalent binding of the synthetic oligosaccharides with an aliphatic linking arm (CH2)8COOCH3 to BSA as described by Pinto and Bundle (1983)^19 and/or Lemieux, Bundle, Baker (U.S. Pat. No. 4,137,401)^13 (ten to twenty haptens per molecule of BSA). Example 5, infra, describes this procedure as applied to carbohydrate 2 of FIG. 1A. Structures and trivial names of some of the monosaccharides and oligosaccharides used are included in FIGS. 1A to 1H. The use of synthetic carbohydrate structures to detect antibody binding has been previously described in U.S. Pat. No. 4,137,401^13. […] After 1 hour, optical densities at 405 nm (O.D.) were measured using a Microplate Autoreader (Model EL 309, BIO-TEK Instruments, Winooski, Vt., U.S.A.). […]

The test system of series [3] is Human Anti-Pig Heart antibodies. Description: ELISA: human antibodies eluted from pig heart binding to carbohydrate-BSA antigens. To be noted: for Optical Density (405 nm): BSA well O.D. subtracted; for O.D. readings: most of the human anti-pig heart preparations. As to the method:
as §1

In series [4] the test system is pig kidney cell line (LLC-PK1). Description: Chromium release assay, plasma incubated with soluble carbohydrate haptens. It counts as cell-based. The following applies: heat inactivated human plasma (O and A), 1 ml incubated overnight at 4° C. with 0.215 g hapten; FIGS. 8A and 8B.
Experimental: Undiluted heat-inactivated plasma (100 μl) was incubated with 100 μl of chromium-labelled target cells (2×10^4 cells) in 96 well V bottom microtiter plates (Dynatech Lab., Chantilly, Va., U.S.A.: Cat.# 1-220-25X) at 37° C. for 1 hour with shaking (20 rpm). A 1/15 dilution of rabbit complement (LOWTOX-M from Cedarlane Laboratories Ltd., Hornby, Ontario, Canada: Cat.# CL3051) was added to each well. The plate was again incubated for 1 hour at 37° C. with shaking. Plates were then spun at 1000 rpm and supernatants were counted for chromium content in the Beckman gamma 4000 counter (Beckman Instruments, Inc., Fullerton, Calif., U.S.A.). Spontaneous and total release controls were also run. Spontaneous counts were always less than 5% of the total counts, and typical total counts of cells ranged from 10,000 to 20,000 cpm.
This procedure was done to investigate the potential for inhibiting human preformed cytotoxic antibodies with carbohydrate(s) haptens. […] The chromium release assay was then performed with treated and untreated plasma; the pig kidney cell line (LLC-PK1) was used as the target cell.
Where [5] appears, read: Human Anti-Pig Kidney preparation 5 A°, human O plasma adsorbed onto tissue.
The mark [6] stands for this setting: Human Anti-Pig Kidney preparation 5 B^AB, human AB plasma adsorbed onto tissue.
Setting [7] is: Human Anti-Pig Kidney preparation 6 A°, human O plasma.
The mark [8] stands for this setting: Human Anti-Pig Kidney preparation 6 B^AB, human AB plasma.
[9] abbreviates: Human Anti-Pig Kidney preparation 7 A^AB, human AB plasma.
The mark [10] stands for this setting: Human Anti-Pig Kidney preparation 7 B°, human O plasma.
Setting [11] is: Human Anti-Pig Kidney preparation 8 A°, human O plasma, pig of A-phenotype.
[12] abbreviates: Human Anti-Pig Kidney preparation 9 B^AB, human AB plasma.
The mark [13] stands for this setting: Human Anti-Pig Heart preparation 5^AB, human AB plasma.
Setting [14] is: Human Anti-Pig Heart preparation 6°, human O plasma.
Where [15] appears, read: Human Anti-Pig Heart preparation 7^AB, human AB plasma.
Where [16] appears, read: Human Anti-Pig Heart preparation 9°, human O plasma.

With “(αGal(1-3)βGal(1-4)βGlc-O—(CH2)8CONH)17-BSA [formula 2]”, the “Optical Density (405 nm)” value in series [1] (setting [5]) was 1.9; in series [1] (setting [6]) it was 1.3; in series [1] (setting [7]), more than 2.0; in series [1] (setting [8]) it was more than 2.0; in series [1] (setting [9]), 0.8; in series [1] (setting [10]), 1.8. Further, the “Optical Density (405 nm)” value in series [1] (setting [11]) is given as 1.2; in series [1] (setting [12]) it was more than 2.0; in series [3] (setting [13]), 1.0; in series [3] (setting [14]), 0.3; in series [3] (setting [15]), 1.2; in series [3] (setting [16]) it was 0.8. Also, the “antibodies to the carbohydrate present in eluted antibody preparations” value in series [2] (every preparation of antibodies tested (Table 1)) is reported as “present in every preparation”. The “reactivity in ELISA” value in series [2] (majority of samples tested, including anti-pig heart and anti-pig kidney) is “most reactivity”.
In the case of N-acetyl-β-D-Glucosaminide [formula 25], the “Optical Density (405 nm)” value in series [1] (setting [5]) is reported as 0.5; in series [1] (setting [6]), 0.7; in series [1] (setting [7]) it was 0.4; in series [1] (setting [8]) it was 1.0; in series [1] (setting [9]) it was 1.1; in series [1] (setting [10]) it was 0.5. Further, the “Optical Density (405 nm)” value in series [1] (setting [11]) was 0.1; in series [1] (setting [12]), 0.1; in series [3] (setting [13]), 2.0; in series [3] (setting [14]), 0.4; in series [3] (setting [15]), more than 2.0; in series [3] (setting [16]), 1.5. For the same compound, the “O.D. readings” value in series [3] was “some of the highest readings”.
In the case of `CC(=O)N[C@H]1[C@H](O[C@@H]2[C@H](O)[C@@H](O)[C@H](C)O[C@H]2O)O[C@H](CO)[C@@H](O)[C@@H]1O[C@@H]1O[C@@H](C)[C@H](O)[C@@H](O)[C@H]1O` [formula 32, α-L-Rha(1-3)βGlcNAc(1-2)α-L-Rha], the “Optical Density (405 nm)” value in series [1] (setting [5]) is given as 1.4; in series [1] (setting [6]), 0.8; in series [1] (setting [7]), 0.1; in series [1] (setting [8]), 0.3; in series [1] (setting [9]) it was 1.9; in series [1] (setting [10]), 0.8. Also, the “Optical Density (405 nm)” value in series [1] (setting [11]) is 0.1; in series [1] (setting [12]) it was 0.1; in series [3] (setting [13]), 1.0; in series [3] (setting [14]) it was 0.3; in series [3] (setting [15]), 1.6; in series [3] (setting [16]), 1.1. In addition, in series [3], the “O.D. readings” value was “some of the highest readings”.
As for `C[C@@H]1O[C@@H](O[C@H]2C(O)O[C@H](CO)[C@H](O)[C@@H]2O[C@H]2O[C@H](CO)[C@H](O)[C@H](O)[C@H]2O)[C@@H](O)[C@H](O)[C@@H]1O` (stereo partly shown) [B trisaccharide], in series [4], the “cytotoxic effect of antibodies to the pig cell line” value is listed as “partially inhibited”.
Take `C[C@@H]1O[C@@H](O)[C@H](O)[C@H](O)[C@H]1O` [formula 31, α-L-Rhamnose]: the “Optical Density (405 nm)” value amounted to 0.2 in series [1] (setting [5]); 0.0 in series [1] (setting [6]); 0.3 in series [1] (setting [7]); 0.5 in series [1] (setting [8]); 1.7 in series [1] (setting [9]); 0.1 in series [1] (setting [10]). Besides, the “Optical Density (405 nm)” value is 0.0 in series [1] (setting [11]); 0.1 in series [1] (setting [12]); 0.7 in series [3] (setting [13]); 0.4 in series [3] (setting [14]); more than 2.0 in series [3] (setting [15]); 0.6 in series [3] (setting [16]). Further, the “O.D. readings” value in series [3] was “some of the highest readings”.
For `CC(=O)N[C@@H]1[C@@H](O)[C@H](O[C@@H]2O[C@H](CO)[C@@H](O)[C@H](O)[C@H]2NC(C)=O)[C@@H](CO)O[C@H]1O` [formula 26, βGlcNAc(1-4)βGlcNAc], the “Optical Density (405 nm)” value came to 0.4 in series [1] (setting [5]); 0.3 in series [1] (setting [6]); 0.2 in series [1] (setting [7]); 0.4 in series [1] (setting [8]); 0.9 in series [1] (setting [9]); 0.1 in series [1] (setting [10]). Moreover, the “Optical Density (405 nm)” value is recorded as 0.0 in series [1] (setting [11]); 0.1 in series [1] (setting [12]); 0.5 in series [3] (setting [13]); 0.2 in series [3] (setting [14]); more than 2.0 in series [3] (setting [15]); 1.7 in series [3] (setting [16]). Moreover, the “O.D. readings” value in series [3] was “some of the highest readings”.
